The assay has as its system Mycobacterium tuberculosis. Kind of assay: Antimycobacterial activity against human resistant Mycobacterium tuberculosis measured after six weeks. Format: functional.

Molecules are shown by their SMILES. ≈ marks a conversion by molar mass, not a printed value.

In general, MIC refers to the least concentration at which growth counts as inhibited. The low end stands for a more susceptible organism, the high end for a less susceptible organism.

Turning to `C=CCN1C(=O)/C(=N\NC(=O)c2ccncc2)c2ccccc21`, the MIC was in the range of 2.7 to 3.5 µg/mL (≈ 8.81 to 11.4 µM).
For the compound `O=C(N/N=C1\C(=O)N(Cc2ccccc2)c2ccccc21)c1ccncc1`, the MIC fell in the range of 2.7 to 3.5 µg/mL (≈ 7.58 to 9.82 µM).
